The values below come from patent publication US20160016929A1, “PRO-DRUG COMPOUNDS” (PROXIMAGEN LIMITED, priority 2013, published 2016).

Read-outs that look alike come from different tables or passages of the source. Bounds are passed on as bounds.

Data set [1] in a line: Solubility in aqueous solutions (Table 3). The format is physicochemical. The following applies: aqueous solution. As to the method:
The skilled person understands that the pH of the gastrointestinal tract changes along its length. […] For more detail see, for example, Measurement of gastrointestinal pH profiles in normal ambulant human subjects, Gut. […] Improved solubility is expected to result in improved absorption, and therefore improved oral bioavailability.
In an embodiment prodrugs of the invention are administered intravenously. High prodrug solubility is advantageous in order to reduce the volume of solution administered to the patient, and to reduce the risk of damage to the circulatory system. Solubility of >10 mg/mL is preferred.

Another data set addresses T1, hERG K+ channel (Homo sapiens, UniProt Q12809).
T1 construct: a Chinese Hamster Lung cell line stably expressing the full length hERG channel; expressed in transfected cells; host or cells: Chinese Hamster Lung cell line
Description: hERG assay, IonWorks patch clamp electrophysiology. It is filed as cell-based. The following applies: human, pH 7.3; 11 uM; Chinese Hamster Lung cell line stably expressing hERG. As for the experimental part: (§1) Compounds of the invention were tested for inhibition of the human ether a go-go related gene (hERG) K^+ channel using IonWorks patch clamp electrophysiology. 8 Point concentration-response curves were generated on two occasions using 3-fold serial dilutions from the maximum assay concentration (33 uM). Electrophysiological recordings were made from a Chinese Hamster Lung cell line stably expressing the full length hERG channel. Single cell ion currents were measured in the perforated patch clamp configuration (100 ug/mL amphoterocin) at room temperature using an IonWorks Quattro instrument. The internal solution contained 140 mM KCl, 1 mM MgCl2, 1 mM EGTA and 20 mM HEPES and was buffered to pH 7.3. The external solution contained 138 mM NaCl, 2.7 mM KCl, 0.9 mM CaCl2, 0.5 mM MgCl2, 8 mM Na2HPO4 and 1.5 mM KH2PO4, and was buffered to pH 7.3. Cells were clamped at a holding potential of […] for 30 s and then stepped to +40 mV for 1 s. This was followed by a hyperpolarising step of 1 s to […] to evoke the hERG tail current. This sequence was repeated 5 times at a frequency of 0.25 Hz. Currents were measured from the tail step at the 5th pulse, and referenced to the holding current. Compounds were incubated for 6-7 min prior to a second measurement of the hERG signal using an identical pulse train. A minimum of 17 cells were required for each pIC50 curve fit. A control compound (quinidine) was used.

The target of data set [2] is T2, human ether a go-go related gene (hERG) K+ channel (Homo sapiens, UniProt Q12809).
T2 construct: a Chinese Hamster Lung cell line stably expressing the full length hERG channel; expressed in transfected cells; host or cells: Chinese Hamster Lung cell line
Description: hERG assay, IonWorks patch clamp electrophysiology. It is filed as cell-based. The settings on record: Chinese Hamster Lung cell line stably expressing hERG; IonWorks Quattro. As for the experimental part:
as §1
In general terms: The hERG channel carries a current that helps repolarise heart muscle cells.

Data set [3] is described as follows: Pharmacokinetics: exposure of tonabersat in plasma after oral or intravenous dosing of prodrugs to rats. It is filed as in vivo. The following applies: fasted male Sprague Dawley rats; for % exposure of tonabersat after dosing the prodrugs of the invention via: Intravenous dosing (iv): compared to equimolar amount of tonabersat (0.78 mg/kg intravenous dosing); for % exposure of tonabersat after dosing the prodrugs of the invention via: Oral dosing (po): compared to equimolar amount of tonabersat (5.00 mg/kg oral dosing). As to the method:
Example Prodrugs of the claimed invention were dosed either intravenously or orally to fasted male Sprague Dawley rats. The rats underwent surgery for jugular vein cannulation 48 h prior to dosing. Following dosing, 0.25 mL blood samples were taken via the cannulae at 0, 5, 10, 20, 30, 45, 60, 120, 240 & 360 min in EDTA coated tubes. Tubes were spun at 13,000 rpm for 4 min and 100 ul of supernatant taken immediately and stored at −80° C. prior to analysis. Plasma samples were analysed by LC-MS/MS following extraction by protein precipitation, and levels of parent prodrug and tonabersat were measured by MRM (Multiple Reaction Monitoring) analysis against an extracted calibration curve of plasma samples spiked with the Example prodrug and tonabersat.
The exposure of tonabersat in plasma following dosing of the prodrugs of the invention was compared directly to the exposure observed following dosing of an equimolar amount of tonabersat under analogous assay conditions (5.00 mg/kg oral dosing or 0.78 mg/kg intravenous dosing). In an embodiment prodrugs of the present invention have >10% exposure of tonabersat obtained following either oral or intravenous dosing of the prodrug to a human or animal subject, compared to the exposure obtained from dosing an equimolar amount of tonabersat itself. In an embodiment the exposure of tonabersat following dosing of the prodrugs is >20%, or >30%, or >40%, or >50%, or preferably >70% compared to the exposure obtained from dosing an equimolar amount of tonabersat itself.

Data set [4] has as its system unique stereo-selective site in rat and human brains. The following applies: cited from earlier work.
Data set [5] shares this test system. The following applies: cited from earlier work. The source holds these as a separate data set.
Data set [6] has as its system high K+ evoked CSD. The following applies: rats; cited from earlier work.
Data set [7] concerns high K+ evoked CSD. The following applies: cats; cited from earlier work.

T1 sequence (Q12809 whole entry): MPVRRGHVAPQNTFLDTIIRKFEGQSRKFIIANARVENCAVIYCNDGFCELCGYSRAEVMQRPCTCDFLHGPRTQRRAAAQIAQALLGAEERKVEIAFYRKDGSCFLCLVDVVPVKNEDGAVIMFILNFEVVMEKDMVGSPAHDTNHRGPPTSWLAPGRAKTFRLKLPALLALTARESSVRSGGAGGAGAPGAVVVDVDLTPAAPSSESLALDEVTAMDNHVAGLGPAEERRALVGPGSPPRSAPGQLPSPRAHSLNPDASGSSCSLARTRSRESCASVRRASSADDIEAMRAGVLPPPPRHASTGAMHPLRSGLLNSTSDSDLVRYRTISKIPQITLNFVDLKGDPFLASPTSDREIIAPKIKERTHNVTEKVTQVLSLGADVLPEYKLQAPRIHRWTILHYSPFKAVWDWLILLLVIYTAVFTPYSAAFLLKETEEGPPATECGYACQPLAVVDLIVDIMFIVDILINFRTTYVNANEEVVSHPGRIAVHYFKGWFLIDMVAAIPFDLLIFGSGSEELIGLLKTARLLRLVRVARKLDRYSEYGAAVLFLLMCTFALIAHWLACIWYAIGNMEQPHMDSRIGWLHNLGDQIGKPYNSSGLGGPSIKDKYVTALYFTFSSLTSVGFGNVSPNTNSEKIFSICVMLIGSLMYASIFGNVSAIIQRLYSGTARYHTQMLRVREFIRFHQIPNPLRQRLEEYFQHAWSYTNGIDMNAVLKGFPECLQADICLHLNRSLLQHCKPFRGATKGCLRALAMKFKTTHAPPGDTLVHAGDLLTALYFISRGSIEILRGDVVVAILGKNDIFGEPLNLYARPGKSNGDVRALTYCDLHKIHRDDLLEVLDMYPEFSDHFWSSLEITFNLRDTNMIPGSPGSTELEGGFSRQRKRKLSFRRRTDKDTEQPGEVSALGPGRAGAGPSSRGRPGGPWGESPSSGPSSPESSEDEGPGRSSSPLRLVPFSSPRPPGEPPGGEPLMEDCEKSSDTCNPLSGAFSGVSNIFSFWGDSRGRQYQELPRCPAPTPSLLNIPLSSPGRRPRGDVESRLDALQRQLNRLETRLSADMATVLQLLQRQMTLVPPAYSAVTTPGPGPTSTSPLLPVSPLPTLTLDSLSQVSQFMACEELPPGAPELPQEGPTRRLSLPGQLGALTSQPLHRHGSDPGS
T2 sequence (Q12809 whole entry): as above

`CC(=O)c1ccc2c(c1)[C@H](NC(=O)c1ccc(F)c(Cl)c1)[C@H](OC(=O)OCCN(C)C)C(C)(C)O2` [Example 1, (3S,4S)-6-Acetyl-4-[(3-chloro-4-fluorobenzene)amido]-2,2-dimethyl-3,4-dihydro-2H-1-benzopyran-3-yl 2-(dimethylamino)ethyl carbonate]: the solubility (usually the concentration that dissolves in the medium under given conditions) in data set [1] (aqueous buffer, pH not given) was less than 1 mg/mL. Besides, on hERG K+ channel, the inhibition (commonly the percentage by which the read-out fell short of the control) at 11 µM was 25%. In data set [2], the 50% inhibitory concentration (IC50) (usually the midpoint of a concentration-inhibition curve) was more than 20 µM.

`CC(=O)c1ccc2c(c1)[C@H](NC(=O)c1ccc(F)c(Cl)c1)[C@H](OC(=O)OCCN1CCOCC1)C(C)(C)O2` [Example 4, (3S,4S)-6-Acetyl-4-[(3-chloro-4-fluorobenzene)amido]-2,2-dimethyl-3,4-dihydro-2H-1-benzopyran-3-yl 2-(morpholin-4-yl)ethyl carbonate] had a solubility in data set [1] (aqueous buffer, pH not given) of less than 1 mg/mL. The IC50 in data set [2] was found to be 9.8 µM.

Turning to `CC(=O)c1ccc2c(c1)[C@H](NC(=O)c1ccc(F)c(Cl)c1)[C@H](OC(=O)N[C@H](C(=O)O)C(C)C)C(C)(C)O2` [Example 8, (2S)-2-[({[(3S,4S)-6-Acetyl-4-[(3-chloro-4-fluorobenzene)amido]-2,2-dimethyl-3,4-dihydro-2H-1-benzopyran-3-yl]oxy}carbonyl)amino]-3-methylbutanoic acid], the solubility in data set [1] (aqueous buffer, pH not given) is less than 1 mg/mL. For the same molecule, in data set [3], the “% exposure of tonabersat after dosing the prodrugs of the invention via: Intravenous dosing (iv)” value (shortened to “% exposure of tonabersat … (iv)”) was “<LLOQ” and the “% exposure of tonabersat after dosing the prodrugs of the invention via: Oral dosing (po)” value (shortened to “% exposure of tonabersat … (po)”) was “<LLOQ”.

In turn, `CC(=O)c1ccc2c(c1)[C@H](NC(=O)c1ccc(F)c(Cl)c1)[C@H](OC(=O)N[C@@H](CCCCN)C(=O)O)C(C)(C)O2.Cl` [Example 9, (2S)-2-[({[(3S,4S)-6-acetyl-4-[(3-chloro-4-fluorobenzene)amido]-2,2-dimethyl-3,4-dihydro-2H-1-benzopyran-3-yl]oxy}carbonyl)amino]-6-aminohexanoic acid hydrochloride] yielded a solubility in data set [1] (pH 4.9, aqueous buffer) of 10 mg/mL. For the same molecule, in data set [3], the “% exposure of tonabersat … (iv)” value is given as “<LLOQ” and the “% exposure of tonabersat … (po)” value is given as “<LLOQ”. Further, at hERG K+ channel, the inhibition at 11 µM amounted to 8%.

In data set [1] (pH 6.3, aqueous buffer), `CC(=O)c1ccc2c(c1)[C@H](NC(=O)c1ccc(F)c(Cl)c1)[C@H](OC(=O)N1CCC(N3CCCCC3)CC1)C(C)(C)O2.Cl` [Example 18, (3S,4S)-6-Acetyl-4-[(3-chloro-4-fluorobenzene)amido]-2,2-dimethyl-3,4-dihydro-2H-1-benzopyran-3-yl 4-(piperidin-1-yl)piperidine-1-carboxylate hydrochloride] had a solubility of more than 10 mg/mL. Besides, in data set [3], the “% exposure of tonabersat … (iv)” value was “<LLOQ” and the “% exposure of tonabersat … (po)” value was “<LLOQ”. For the same molecule, the inhibition at 11 µM on hERG K+ channel was 28%.

In turn, `CC(=O)c1ccc2c(c1)[C@H](NC(=O)c1ccc(F)c(Cl)c1)[C@H](OC(=O)OCCN1CCCCC1)C(C)(C)O2` [Example 30, (3S,4S)-6-Acetyl-4-[(3-chloro-4-fluorobenzene)amido]-2,2-dimethyl-3,4-dihydro-2H-1-benzopyran-3-yl 2-(piperidin-1-yl)ethyl carbonate] displayed an IC50 in data set [2] of 7 µM.

For `CC(=O)c1ccc2c(c1)[C@H](NC(=O)c1ccc(F)c(Cl)c1)[C@H](O)C(C)(C)O2` [Tonabersat, N-[(3S,4S)-6-Acetyl-3-hydroxy-2,2-dimethyl-3,4-dihydro-2H-1-benzopyran-4-yl]-3-chloro-4-fluorobenzamide], the “binding affinity to brain site” value in data set [4] and in data set [5] was “high affinity” each time. Also, the “inhibition of high K+ evoked CSD” value in the data set with high K+ evoked CSD [6] and in the data set on high K+ evoked CSD [7] was “inhibits” each time.
